Test results: ChEMBL document CHEMBL1201862, “PubChem BioAssay data set” (2004)
One block for each compound: values may come before it. Active and inactive are the calls of the source.

Experiments:
[1] = biological target: Hepatocyte growth factor receptor (Homo sapiens, UniProt P08581); format: functional;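 note: kinase panel profiling across the kinome, with MET as the panel member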
[2] = biological target: Homeodomain-interacting protein kinase 4 (Homo sapiens, UniProt Q8NE63); format: functional
[3] = biological target: Serine/threonine-protein kinase PLK1 (Homo sapiens, UniProt P53350); format: functional;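 note: PLK1 measured as one member of a kinome-wide profiling panel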
[4] = biological target: Dual specificity tyrosine-phosphorylation-regulated kinase 3 (Homo sapiens, UniProt O43781); format: functional;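 note: measured as one member of a broad kinase panel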
[5] = biological target: Death-associated protein kinase 3 (Homo sapiens, UniProt O43293); format: functional;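 note: measured as one member of a kinome-wide profiling panel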
[6] = biological target: Cell division cycle 7-related protein kinase (Homo sapiens, UniProt O00311); format: functional;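 note: value obtained from a kinome-wide kinase panel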
[7] = biological target: Serine/threonine-protein kinase PLK3 (Homo sapiens, UniProt Q9H4B4); format: functional
[8] = biological target: Glycogen synthase kinase-3 alpha (Homo sapiens, UniProt P49840); format: functional;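 note: GSK3A result taken from a broad kinome-wide kinase panel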
[9] = biological target: Tyrosine-protein kinase Lck (Homo sapiens, UniProt P06239); format: functional;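 note: lck was assayed as one member of a kinase panel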
[10] = biological target: Fibroblast growth factor receptor 1 (Homo sapiens, UniProt P11362); format: functional
[11] = biological target: Serine/threonine-protein kinase 3 (Homo sapiens, UniProt Q13188); format: functional;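 note: measured as one member of a kinome-wide kinase panel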
[12] = biological target: Proto-oncogene tyrosine-protein kinase Src (Homo sapiens, UniProt P12931); format: functional;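 note: SRC entry within a kinome-wide kinase profiling panel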
[13] = biological target: Testis-specific serine/threonine-protein kinase 1 (Homo sapiens, UniProt Q9BXA7); format: functional
[14] = biological target: Protein kinase C iota type (Homo sapiens, UniProt P41743); format: functional;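 note: measured within a kinome-wide kinase panel, PRKCI as panel member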
[15] = biological target: Serine/threonine-protein kinase MRCK alpha (Homo sapiens, UniProt Q5VT25); format: functional
[16] = biological target: MAP kinase-activated protein kinase 5 (Homo sapiens, UniProt Q8IW41); format: functional;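 note: measured as one member of a kinome panel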
[17] = biological target: Tyrosine-protein kinase HCK (Homo sapiens, UniProt P08631); experiment: Navigating the Kinome. Panel member name: HCK; format: functional
[18] = biological target: cGMP-dependent protein kinase 1 (Homo sapiens, UniProt Q13976); format: functional;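 note: value from a kinome panel screen with PRKG1 as the panel member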
[19] = biological target: Serine/threonine-protein kinase BRSK1 (Homo sapiens, UniProt Q8TDC3); format: functional;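 note: measured within a kinome-wide kinase panel, with the target listed as KIAA1811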
[20] = biological target: BDNF/NT-3 growth factors receptor (Homo sapiens, UniProt Q16620); format: functional;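 note: NTRK2 measured as one member of a broad kinome-wide kinase profiling panel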
[21] = biological target: Receptor tyrosine-protein kinase erbB-2 (Homo sapiens, UniProt P04626); experiment: Navigating the Kinome. Panel member name: ERBB2; format: functional
[22] = biological target: Testis-specific serine/threonine-protein kinase 2 (Homo sapiens, UniProt Q96PF2); format: functional;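 note: part of the Navigating the Kinome panel, target entry STK22B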
[23] = biological target: Non-receptor tyrosine-protein kinase TYK2 (Homo sapiens, UniProt P29597); format: functional
[24] = biological target: Calcium/calmodulin-dependent protein kinase type II subunit delta (Homo sapiens, UniProt Q13557); format: functional
[25] = biological target: Tyrosine-protein kinase ABL1 (Homo sapiens, UniProt P00519); format: functional
[26] = biological target: Rho-associated protein kinase 2 (Homo sapiens, UniProt O75116); format: functional
[27] = biological target: Casein kinase I isoform delta (Homo sapiens, UniProt P48730); format: functional;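 note: measured as one member (CSNK1D) of a kinome panel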
[28] = biological target: Dual specificity protein kinase CLK4 (Homo sapiens, UniProt Q9HAZ1); format: functional
[29] = biological target: Cyclin-dependent kinase 9 (Homo sapiens, UniProt P50750); format: functional;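 note: value from the CDK9 entry of a kinome-spanning kinase panel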
[30] = biological target: Tyrosine-protein kinase receptor TYRO3 (Homo sapiens, UniProt Q06418); format: functional;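 note: TYRO3 value obtained as one member of a kinome-wide profiling panel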
[31] = biological target: Vascular endothelial growth factor receptor 3 (Homo sapiens, UniProt P35916); format: functional;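 note: value from a kinome-wide profiling panel, with FLT4 as the panel member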
[32] = biological target: T1, Mannose-6-phosphate isomerase (Homo sapiens, UniProt P34949); experiment: MPI inhibition at elevated mannose 6-phosphate – biochemical, fluorescence intensity, high mannose 6-phosphate, primary screen (AID 1220)
T1 sequence (P34949 whole entry): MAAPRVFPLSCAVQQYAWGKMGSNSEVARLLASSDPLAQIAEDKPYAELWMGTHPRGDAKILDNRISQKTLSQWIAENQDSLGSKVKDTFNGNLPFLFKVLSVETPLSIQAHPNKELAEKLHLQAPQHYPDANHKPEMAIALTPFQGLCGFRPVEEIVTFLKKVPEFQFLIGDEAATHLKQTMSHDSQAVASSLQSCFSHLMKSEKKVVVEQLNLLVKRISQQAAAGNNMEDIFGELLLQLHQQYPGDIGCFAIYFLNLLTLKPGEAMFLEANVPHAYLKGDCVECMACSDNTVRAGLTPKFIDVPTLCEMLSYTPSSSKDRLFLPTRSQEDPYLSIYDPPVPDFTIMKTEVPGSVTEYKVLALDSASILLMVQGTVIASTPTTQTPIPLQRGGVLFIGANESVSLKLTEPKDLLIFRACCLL

[33] = biological target: T2, Neuropeptide Y receptor type 1 (Homo sapiens, UniProt P25929); experiment: Fluorescence-based dose response cell-based high-throughput screening assay for agonists of NPY-Y1. [Related pubchem assays: 1697 (Screening assay (NPY-Y1 agonists).), 1359 (Screening assay (NPY-Y2 potentiators or agonists).), 1304 (Screening assay (NPY-Y1 potentiators or agonists).), 1704 (Screening assay (CNGC inhibitors).), 1791 (Summary AID.)]; format: functional
T2 sequence (P25929 whole entry): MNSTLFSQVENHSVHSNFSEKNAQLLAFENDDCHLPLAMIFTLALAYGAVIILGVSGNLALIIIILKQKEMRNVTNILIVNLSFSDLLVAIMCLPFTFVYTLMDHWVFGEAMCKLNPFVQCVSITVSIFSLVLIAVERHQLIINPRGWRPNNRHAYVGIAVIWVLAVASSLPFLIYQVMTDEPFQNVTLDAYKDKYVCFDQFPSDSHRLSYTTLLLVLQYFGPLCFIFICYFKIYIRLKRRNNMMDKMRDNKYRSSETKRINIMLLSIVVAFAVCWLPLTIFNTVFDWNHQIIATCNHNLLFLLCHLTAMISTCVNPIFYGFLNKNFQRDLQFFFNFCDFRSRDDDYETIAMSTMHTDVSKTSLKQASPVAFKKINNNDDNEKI

[34] = MIN6 cell viability loss – mouse insulinoma, cytotoxicity control, dose response (AID 2122); format: functional;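 note: confirmatory high-throughput counterscreen run to flag cytotoxic compounds; mouse MIN-6 beta cells carrying an insulin promoter eGFP reporter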
Vero = experiment: viability of Vero cells under compound – cytotoxicity control for flavivirus capping enzyme inhibitors (AID 588742); format: functional; details: Chlorocebus sabaeus

Chain of Tyrosine-protein kinase receptor TYRO3 (Q06418 whole entry): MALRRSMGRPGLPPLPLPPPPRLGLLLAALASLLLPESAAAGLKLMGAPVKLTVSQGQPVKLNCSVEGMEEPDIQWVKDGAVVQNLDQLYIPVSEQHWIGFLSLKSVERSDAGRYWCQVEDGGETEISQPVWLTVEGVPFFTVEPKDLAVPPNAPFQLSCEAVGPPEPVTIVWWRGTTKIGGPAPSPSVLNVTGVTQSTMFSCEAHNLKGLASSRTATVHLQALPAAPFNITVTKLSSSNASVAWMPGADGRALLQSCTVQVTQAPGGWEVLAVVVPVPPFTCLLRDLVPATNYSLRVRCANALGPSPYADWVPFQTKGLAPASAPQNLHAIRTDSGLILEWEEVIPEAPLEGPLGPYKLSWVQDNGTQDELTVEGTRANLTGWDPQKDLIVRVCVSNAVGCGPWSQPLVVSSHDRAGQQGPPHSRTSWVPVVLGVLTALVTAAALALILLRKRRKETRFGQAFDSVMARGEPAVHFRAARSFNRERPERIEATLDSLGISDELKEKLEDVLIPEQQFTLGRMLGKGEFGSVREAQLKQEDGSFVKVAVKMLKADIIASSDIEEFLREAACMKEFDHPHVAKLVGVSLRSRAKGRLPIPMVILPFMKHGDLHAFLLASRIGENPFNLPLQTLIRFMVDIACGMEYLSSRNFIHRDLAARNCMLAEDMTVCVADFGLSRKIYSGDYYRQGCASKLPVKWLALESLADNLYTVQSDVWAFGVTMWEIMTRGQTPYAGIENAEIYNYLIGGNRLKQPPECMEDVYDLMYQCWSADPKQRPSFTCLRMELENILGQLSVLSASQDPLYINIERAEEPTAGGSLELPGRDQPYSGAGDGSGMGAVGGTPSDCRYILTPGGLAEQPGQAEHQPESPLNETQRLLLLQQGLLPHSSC
Chain of Homeodomain-interacting protein kinase 4 (Q8NE63 whole entry): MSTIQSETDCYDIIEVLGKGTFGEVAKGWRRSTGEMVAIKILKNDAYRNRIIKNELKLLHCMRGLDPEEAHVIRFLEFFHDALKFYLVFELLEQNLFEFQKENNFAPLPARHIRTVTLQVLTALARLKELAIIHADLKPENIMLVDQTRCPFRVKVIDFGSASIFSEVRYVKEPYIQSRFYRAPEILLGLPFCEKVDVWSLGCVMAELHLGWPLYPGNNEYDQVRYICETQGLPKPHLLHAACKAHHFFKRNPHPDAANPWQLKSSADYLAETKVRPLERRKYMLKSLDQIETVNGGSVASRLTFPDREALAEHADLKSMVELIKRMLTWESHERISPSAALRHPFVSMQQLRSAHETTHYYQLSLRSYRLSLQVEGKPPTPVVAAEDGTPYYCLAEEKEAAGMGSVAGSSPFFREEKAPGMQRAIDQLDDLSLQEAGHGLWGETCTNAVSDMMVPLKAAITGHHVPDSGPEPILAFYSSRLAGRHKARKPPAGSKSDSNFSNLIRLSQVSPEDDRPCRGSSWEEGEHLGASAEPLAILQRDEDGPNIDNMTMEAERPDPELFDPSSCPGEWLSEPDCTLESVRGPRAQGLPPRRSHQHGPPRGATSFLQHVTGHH
Chain of Calcium/calmodulin-dependent protein kinase type II subunit delta (Q13557 whole entry): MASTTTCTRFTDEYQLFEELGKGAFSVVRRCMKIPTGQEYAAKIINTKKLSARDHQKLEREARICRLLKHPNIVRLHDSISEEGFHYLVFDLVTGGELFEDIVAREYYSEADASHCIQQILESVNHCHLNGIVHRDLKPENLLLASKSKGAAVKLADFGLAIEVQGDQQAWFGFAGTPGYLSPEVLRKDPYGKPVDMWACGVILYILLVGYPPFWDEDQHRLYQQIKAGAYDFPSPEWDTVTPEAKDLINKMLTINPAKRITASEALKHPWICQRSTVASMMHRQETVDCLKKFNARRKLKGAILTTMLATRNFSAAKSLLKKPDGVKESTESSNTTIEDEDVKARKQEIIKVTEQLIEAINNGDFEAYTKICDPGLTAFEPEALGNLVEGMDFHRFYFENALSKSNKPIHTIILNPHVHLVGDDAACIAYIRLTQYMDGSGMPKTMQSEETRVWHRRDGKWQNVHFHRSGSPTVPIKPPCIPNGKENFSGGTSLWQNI
Chain of Glycogen synthase kinase-3 alpha (P49840 whole entry): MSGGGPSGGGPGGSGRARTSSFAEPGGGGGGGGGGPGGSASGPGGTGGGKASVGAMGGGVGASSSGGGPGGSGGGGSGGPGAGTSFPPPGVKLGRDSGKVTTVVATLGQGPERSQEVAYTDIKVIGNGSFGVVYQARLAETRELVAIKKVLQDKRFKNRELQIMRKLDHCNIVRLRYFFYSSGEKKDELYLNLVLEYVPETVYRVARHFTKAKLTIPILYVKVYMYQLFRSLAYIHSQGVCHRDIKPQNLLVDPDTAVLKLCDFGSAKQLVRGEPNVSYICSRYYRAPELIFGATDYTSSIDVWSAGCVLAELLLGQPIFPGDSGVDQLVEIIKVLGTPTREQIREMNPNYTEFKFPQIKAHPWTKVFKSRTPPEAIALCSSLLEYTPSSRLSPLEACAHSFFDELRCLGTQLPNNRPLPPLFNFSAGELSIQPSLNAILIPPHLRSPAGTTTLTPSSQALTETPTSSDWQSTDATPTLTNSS
Chain of Serine/threonine-protein kinase 3 (Q13188 whole entry): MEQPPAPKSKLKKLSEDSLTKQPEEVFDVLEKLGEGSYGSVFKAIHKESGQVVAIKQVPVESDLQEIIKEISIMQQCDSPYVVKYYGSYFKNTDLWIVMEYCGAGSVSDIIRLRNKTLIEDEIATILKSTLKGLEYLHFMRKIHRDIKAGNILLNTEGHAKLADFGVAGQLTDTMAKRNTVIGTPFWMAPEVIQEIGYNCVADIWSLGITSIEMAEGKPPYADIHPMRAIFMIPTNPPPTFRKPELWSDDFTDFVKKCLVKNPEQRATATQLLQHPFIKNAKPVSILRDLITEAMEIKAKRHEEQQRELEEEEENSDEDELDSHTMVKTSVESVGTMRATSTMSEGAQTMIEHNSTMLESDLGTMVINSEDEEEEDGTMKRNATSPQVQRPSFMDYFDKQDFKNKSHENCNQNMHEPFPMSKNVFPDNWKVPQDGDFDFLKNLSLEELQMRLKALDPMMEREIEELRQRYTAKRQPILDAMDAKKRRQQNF
Chain of Non-receptor tyrosine-protein kinase TYK2 (P29597 whole entry): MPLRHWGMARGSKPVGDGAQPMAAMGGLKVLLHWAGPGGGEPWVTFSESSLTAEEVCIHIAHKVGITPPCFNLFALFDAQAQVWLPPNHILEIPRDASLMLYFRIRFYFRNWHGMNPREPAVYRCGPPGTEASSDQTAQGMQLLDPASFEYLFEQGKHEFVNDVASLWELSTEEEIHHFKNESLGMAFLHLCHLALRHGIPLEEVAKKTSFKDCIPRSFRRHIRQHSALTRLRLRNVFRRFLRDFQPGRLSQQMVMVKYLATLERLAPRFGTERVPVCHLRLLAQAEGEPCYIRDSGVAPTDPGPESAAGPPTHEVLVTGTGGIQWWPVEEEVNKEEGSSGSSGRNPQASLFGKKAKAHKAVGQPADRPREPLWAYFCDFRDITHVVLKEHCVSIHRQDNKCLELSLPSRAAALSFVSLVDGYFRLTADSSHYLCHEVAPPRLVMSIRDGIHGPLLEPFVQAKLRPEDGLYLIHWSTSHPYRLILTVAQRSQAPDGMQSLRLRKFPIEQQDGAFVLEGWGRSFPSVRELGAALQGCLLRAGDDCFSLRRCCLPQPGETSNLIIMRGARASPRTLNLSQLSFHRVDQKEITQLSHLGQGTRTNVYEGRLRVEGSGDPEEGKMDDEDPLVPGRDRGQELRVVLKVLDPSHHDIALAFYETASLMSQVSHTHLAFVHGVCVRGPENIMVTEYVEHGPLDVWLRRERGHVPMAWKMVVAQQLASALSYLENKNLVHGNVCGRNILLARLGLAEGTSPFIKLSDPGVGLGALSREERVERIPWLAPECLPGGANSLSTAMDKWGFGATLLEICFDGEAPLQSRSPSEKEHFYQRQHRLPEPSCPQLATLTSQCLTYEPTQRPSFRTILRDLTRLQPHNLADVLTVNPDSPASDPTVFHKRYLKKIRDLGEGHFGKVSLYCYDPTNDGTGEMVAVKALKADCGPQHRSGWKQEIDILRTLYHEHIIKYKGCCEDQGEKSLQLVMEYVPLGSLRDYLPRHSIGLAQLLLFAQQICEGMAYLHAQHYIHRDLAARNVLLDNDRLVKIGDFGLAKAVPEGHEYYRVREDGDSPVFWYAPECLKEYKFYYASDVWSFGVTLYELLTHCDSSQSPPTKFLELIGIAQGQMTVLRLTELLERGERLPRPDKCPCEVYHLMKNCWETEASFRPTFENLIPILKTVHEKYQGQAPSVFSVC
Chain of Dual specificity protein kinase CLK4 (Q9HAZ1 whole entry): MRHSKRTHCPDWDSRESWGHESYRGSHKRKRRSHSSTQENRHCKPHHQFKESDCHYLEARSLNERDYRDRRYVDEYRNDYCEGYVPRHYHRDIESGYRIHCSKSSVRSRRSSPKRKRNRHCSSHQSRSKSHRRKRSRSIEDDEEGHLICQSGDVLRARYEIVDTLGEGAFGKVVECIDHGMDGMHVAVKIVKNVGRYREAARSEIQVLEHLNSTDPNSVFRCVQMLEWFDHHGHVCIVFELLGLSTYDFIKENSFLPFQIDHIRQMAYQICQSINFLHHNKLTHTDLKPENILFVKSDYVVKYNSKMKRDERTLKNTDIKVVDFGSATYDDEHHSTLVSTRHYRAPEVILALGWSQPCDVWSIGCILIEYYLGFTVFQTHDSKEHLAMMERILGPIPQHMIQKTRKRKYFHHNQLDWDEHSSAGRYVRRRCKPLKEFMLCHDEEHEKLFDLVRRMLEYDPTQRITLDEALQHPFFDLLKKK
Chain of Testis-specific serine/threonine-protein kinase 1 (Q9BXA7 whole entry): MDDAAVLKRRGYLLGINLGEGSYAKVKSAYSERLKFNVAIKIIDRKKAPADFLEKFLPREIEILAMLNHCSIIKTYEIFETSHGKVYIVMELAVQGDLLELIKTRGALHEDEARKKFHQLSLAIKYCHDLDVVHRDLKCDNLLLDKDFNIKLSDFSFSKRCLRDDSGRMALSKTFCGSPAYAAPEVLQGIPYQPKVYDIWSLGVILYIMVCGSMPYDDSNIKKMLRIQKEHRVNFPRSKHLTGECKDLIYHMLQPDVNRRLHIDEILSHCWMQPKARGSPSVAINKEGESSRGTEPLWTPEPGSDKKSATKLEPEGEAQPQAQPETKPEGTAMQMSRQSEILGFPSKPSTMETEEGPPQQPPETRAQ

Ki [1]: > 2000 nM (inactive)
Ki [2]: 1000 nM (active)
Ki [3]: > 5010 nM (inactive)
Ki [4]: 50.1 nM (active)
Ki [6]: 1 nM (active)
Ki [7]: 3980 nM (active)
Ki [8]: 31.6 nM (active)
Ki [9]: > 3160 nM (inactive)
Ki [10]: > 2000 nM (inactive)
Ki [11]: 50.1 nM (active)
Ki [12]: > 2000 nM (inactive)
Ki [13]: > 1000 nM (inactive)
Ki [14]: 398 nM (active)
Ki [15]: 20 nM (active)
Ki [16]: > 1580 nM (inactive)
Ki [17]: > 3160 nM (inactive)
Ki [18]: > 1260 nM (inactive)
Ki [19]: 1260 nM (active)
Ki [20]: > 5010 nM (inactive)
Ki [21]: 1000 nM (active)
Ki [22]: > 1000 nM (inactive)
Ki [23]: > 1260 nM (inactive)
Ki [24]: > 1580 nM (inactive)
Ki [25]: > 631 nM (inactive)
Ki [26]: 12.6 nM (active)
Ki [27]: 200 nM (active)
Ki [28]: 20 nM (active)
Ki [29]: 251 nM (active)
Ki [30]: > 2510 nM (inactive)
Ki [31]: 63.1 nM (active)
SMILES: OC1CCC(Nc2cc(Cl)nc(-c3c[nH]c4ncccc34)n2)CC1 (stereo not given)
Ki [5]: 316 nM (active)

SMILES: COCC/N=c1\scc(-c2cccs2)n1/N=C/c1ccc(O)c(O)c1O
IC50 [32]: 23800 nM (active)
EC50 [33]: > 11800 nM (not active)
IC50 [34]: > 16000 nM (inactive)
CC50 (Vero): 22800 nM (active)
